Read-outs that look alike come from different tables or passages of the source.
Key:
[1] = test system: NCTC clone 1469 cells; assay: Cytotoxicity control of the treated fabric test; assay type: cell-based, mouse; conditions: Formaldehyde control
Description: Controls were untreated fabric pieces of the same size. After incubation with the virus for 15, 30 or 60 minutes the samples were neutralized with D/E broth, vortexed to remove the virus from the fabric and passed over a Sephadex LH-20 column to remove potential cytotoxic substances. Serial dilutions of the column eluates were used to inoculate NCTC clone 1469 cells in a 96 well plate to determine the TCID50 for the virus at each time. After 14 days the wells were examined for cytopathological effects (CPE) in the cells and scored accordingly.

[2] = test system: NCTC clone 1469 cells; conditions: mouse, pH 7.3

C=O [Formaldehyde]
dilution to which all cells were killed [1]: killed all cells to the 10^−2 dilution | dilution to which all cells were killed [2]: killed all cells to the 10^4 dilution

Reference: patent US20210395652A1, “TEXTILE TREATMENT COMPOSITIONS” (priority 2020, published 2021)
